Converted amounts (≈) assume the structure as drawn. Where two headings read alike, the source gives them in different places.
Assays:
Assay in all cases: In vitro MIC, dilution of a liquid medium
Format in all cases: cell-based
[1] = test system: Bacillus subtilis ATCC 6 633; conditions: read-out: minimum inhibiting concentration (MIC)
Protocol: (§1) The method used was a dilution of a liquid medium where a series of tubes received the same quantity of a sterile nutritive media and increasing doses of the test compounds were placed therein. Then each tube was seeded with a bacterial strain and was incubated for 24 or 48 hours at 37° C. in an oven. The increasing inhibition was determined by transillumination to determine the minimum inhibiting concentration (MIC in μg/ml) and the results are reported in the following Tables.

Enterobacter cloacae 681 = conditions: 37° C., read-out: minimum inhibiting concentration (MIC)
Protocol: as §1

[2] = test system: Escherichia Coli Exp. TO26 B6; conditions: 37° C., read-out: minimum inhibiting concentration (MIC)
Protocol: as §1

[3] = test system: Escherichia Coli Resistant Gentamicine, Tobramycine R 55 123 D; conditions: read-out: minimum inhibiting concentration (MIC)
Protocol: as §1

[4] = test system: Escherichia Coli Resistant Tetracycline ATCC 11 303; conditions: read-out: minimum inhibiting concentration (MIC)
Protocol: as §1

[5] = test system: Escherichia Coli Sensitive Tetracycline ATCC 9 637; conditions: read-out: minimum inhibiting concentration (MIC)
Protocol: as §1

[6] = test system: Klebsiella pneumoniae 2 536 Resistant Gentamicine; conditions: read-out: minimum inhibiting concentration (MIC)
Protocol: as §1

[7] = test system: Klebsiella pneumoniae Exp. 52 145; conditions: read-out: minimum inhibiting concentration (MIC)
Protocol: as §1

[8] = test system: Proteus mirabilis (indol -) A 235; conditions: read-out: minimum inhibiting concentration (MIC)
Protocol: as §1

[9] = test system: Proteus vulgaris (indol +) A 232; conditions: read-out: minimum inhibiting concentration (MIC)
Protocol: as §1

Providencia Du 48 = conditions: 37° C., read-out: minimum inhibiting concentration (MIC)
Protocol: as §1

[10] = test system: Salmonella typhimurium 420; conditions: Salmonella enterica, read-out: minimum inhibiting concentration (MIC)
Protocol: as §1

[11] = test system: Serratia Resistant Gentamicine 2 532; conditions: 37° C., read-out: minimum inhibiting concentration (MIC)
Protocol: as §1

[12] = test system: Staphylococcus aureus ATCC 6 538 Penicillin-Sensitive; conditions: 37° C., read-out: minimum inhibiting concentration (MIC)
Protocol: as §1

[13] = test system: Staphylococcus aureus UC 1 128 Penicillin-resistant; conditions: 37° C., read-out: minimum inhibiting concentration (MIC)
Protocol: as §1

[14] = test system: Staphylococcus aureus exp. n° 54 146; conditions: 37° C., read-out: minimum inhibiting concentration (MIC)
Protocol: as §1

[15] = test system: Streptococcus faecalis 5 432; conditions: Enterococcus faecalis, 5432, 37° C., read-out: minimum inhibiting concentration (MIC)
Protocol: as §1

[16] = test system: Streptococcus faecalis 99 F 74; conditions: Enterococcus faecalis, 99F74, 37° C., read-out: minimum inhibiting concentration (MIC)
Protocol: as §1

[17] = test system: Streptococcus pyogenes A 561; conditions: read-out: minimum inhibiting concentration (MIC)
Protocol: as §1

Compound | MIC (Enterobacter cloacae 681; 24 H) [µg/mL] | MIC (Enterobacter cloacae 681; 48 H) [µg/mL] | MIC ([2]; 24 H) [µg/mL] | MIC ([2]; 48 H) [µg/mL] | MIC ([3]; 24 h) [µg/mL] | MIC ([3]; 48 h) [µg/mL] | MIC ([4]; ATCC11, 24 H, 37° C.) [µg/mL] | MIC (Providencia Du 48; DU48, 24 H) [µg/mL] | MIC (Providencia Du 48; DU48, 48 H) [µg/mL] | MIC ([11]; 24 H) [µg/mL] | MIC ([11]; 48 H) [µg/mL] | MIC ([12]; ATCC6, 24 H) [µg/mL] | MIC ([12]; ATCC6, 48 H) [µg/mL] | MIC ([13]; UC1, 24 H) [µg/mL] | MIC ([13]; UC1, 48 H) [µg/mL] | MIC ([14]; 24 H) [µg/mL] | MIC ([14]; 48 H) [µg/mL] | MIC ([15]; 24 H) [µg/mL] | MIC ([15]; 48 H) [µg/mL] | MIC ([16]; 24 H) [µg/mL] | further results
CCOC(=O)CO/N=C(\C(=O)NC1C(=O)N2C(C(=O)O)=C(COC(C)=O)CS[C@H]12)c1csc(N)n1 (stereo partly drawn) [Example 2, 7-[2-(2-amino-4-thiazolyl)-2-carbethoxymethyloxyimino-acetamido]-3-acetoxymethyl-ceph-3-eme-4-carboxylic acid] | 10 (≈ 19 µM) | 10 (≈ 19 µM) | 1 (≈ 1.9 µM) | 1 (≈ 1.9 µM) | 1 (≈ 1.9 µM) | 1 (≈ 1.9 µM) | 0.5 (≈ 0.948 µM) | 5 (≈ 9.48 µM) | 5 (≈ 9.48 µM) | 5 (≈ 9.48 µM) | 5 (≈ 9.48 µM) | 3 (≈ 5.69 µM) | 5 (≈ 9.48 µM) | 3 (≈ 5.69 µM) | 3 (≈ 5.69 µM) | 3 (≈ 5.69 µM) | 5 (≈ 9.48 µM) | 5 (≈ 9.48 µM) | > 40 | > 40 | MIC ([1]; ATCC6, 24 H, 37° C.): 0.5 µg/mL (≈ 0.948 µM); MIC ([1]; ATCC6, 48 H, 37° C.): 5 µg/mL (≈ 9.48 µM); MIC ([4]; ATCC11, 48 h): 1 µg/mL (≈ 1.9 µM); MIC ([5]; ATCC9, 24 H, 37° C.): 2 µg/mL (≈ 3.79 µM); MIC ([5]; ATCC9, 48 H, 37° C.): 2 µg/mL (≈ 3.79 µM); MIC ([6]; 24 H, 37° C.): 2 µg/mL (≈ 3.79 µM); MIC ([6]; 48 H, 37° C.): 2 µg/mL (≈ 3.79 µM); MIC ([7]; EXP.52145, 48 H, 37° C.): 0.2 µg/mL (≈ 0.379 µM); MIC ([7]; EXP.52145, 24 h): 0.1 µg/mL (≈ 0.19 µM); MIC ([8]; 24 H, 37° C.): 0.2 µg/mL (≈ 0.379 µM); MIC ([8]; 48 H, 37° C.): 0.2 µg/mL (≈ 0.379 µM); MIC ([9]; 24 h): 1 µg/mL (≈ 1.9 µM); MIC ([9]; 48 h): 1 µg/mL (≈ 1.9 µM); MIC ([10]; 48 H, 37° C.): 2 µg/mL (≈ 3.79 µM); MIC ([10]; 24 h): 1 µg/mL (≈ 1.9 µM); MIC ([16]; 48 H): > 40 µg/mL; MIC ([17]; A561, 24 H, 37° C.): 0.05 µg/mL (≈ 0.0948 µM); MIC ([17]; A561, 48 h): 0.1 µg/mL (≈ 0.19 µM)
CC(=O)OCC1=C(C(=O)O)N2C(=O)C(NC(=O)/C(=N\OCC(=O)O)c3csc(N)n3)[C@H]2SC1 (stereo partly drawn) [Example 5, disodium 7-[2-(2-amino-4-thiazolyl)-2-hydroxycarbonylmethoxyimino-acetamido]-3-acetoxymethyl-ceph-3-eme-4-carboxylate] | 5 | 20 | 0.1 | 0.1 | 0.1 | 0.1 | 0.05 | 1 | 2 | 1 | 2 | 10 | 10 | 20 | 20 | 20 | 20 | 20 | > 40 | > 40 | MIC ([4]; ATCC11, 48 H, 37° C.): 0.05 µg/mL; MIC ([5]; ATCC9, 24 h): 0.2 µg/mL; MIC ([5]; ATCC9, 48 h): 0.2 µg/mL; MIC ([6]; 24 h): 0.1 µg/mL; MIC ([6]; 48 h): 0.1 µg/mL; MIC ([7]; EXP.52145, 24 h): 0.1 µg/mL; MIC ([7]; EXP.52145, 48 h): 0.1 µg/mL; MIC ([8]; 24 H, 37° C.): ≤ 0.02 µg/mL; MIC ([8]; 48 H, 37° C.): ≤ 0.02 µg/mL; MIC ([9]; 24 h): 0.1 µg/mL; MIC ([9]; 48 h): 0.1 µg/mL; MIC ([10]; 48 H, 37° C.): 0.5 µg/mL; MIC ([10]; 24 h): 0.2 µg/mL; MIC ([16]; 48 H): > 40 µg/mL; MIC ([17]; A561, 24 H, 37° C.): 0.5 µg/mL; MIC ([17]; A561, 48 H, 37° C.): 0.5 µg/mL
CC(=O)OCC1=C(C(=O)O)N2C(=O)C(NC(=O)/C(=N\OCC#N)c3csc(N)n3)C2SC1 (stereo not drawn) [Example 8, sodium 7-[2-(2-amino-4-thiazolyl)-2-cyano-methoxyimino-acetamido]-3-acetoxymethyl-ceph-3-eme-4-carboxylate] | 3 | 5 | 0.2 | 0.2 | 0.2 | 0.2 | 0.05 | 5 | 5 | 2 | 2 | 2 | 2 | 2 | 3 | 2 | 3 | 3 | 20 | 10 | MIC ([1]; ATCC6, 48 H, 37° C.): 1 µg/mL; MIC ([1]; ATCC6, 24 h): 0.5 µg/mL; MIC ([4]; ATCC11, 48 H, 37° C.): 0.05 µg/mL; MIC ([5]; ATCC9, 24 h): 0.5 µg/mL; MIC ([5]; ATCC9, 48 h): 0.5 µg/mL; MIC ([6]; 24 H, 37° C.): 1 µg/mL; MIC ([6]; 48 H, 37° C.): 1 µg/mL; MIC ([7]; EXP.52145, 24 H, 37° C.): 0.05 µg/mL; MIC ([7]; EXP.52145, 48 H, 37° C.): 0.05 µg/mL; MIC ([8]; 24 H, 37° C.): 0.05 µg/mL; MIC ([8]; 48 H, 37° C.): 0.05 µg/mL; MIC ([10]; 24 h): 0.5 µg/mL; MIC ([10]; 48 h): 0.5 µg/mL; MIC ([16]; 48 H): > 40 µg/mL; MIC ([17]; A561, 24 H, 37° C.): 0.05 µg/mL; MIC ([17]; A561, 48 H, 37° C.): 0.05 µg/mL
CC(=O)OCC1=C(C(=O)O)N2C(=O)C(NC(=O)/C(=N\OCC(N)=O)c3csc(N)n3)[C@H]2SC1 (stereo partly drawn) [Example 11, sodium 7-[2-(2-amino-4-thiazolyl)-2-(aminocarbonylmethoxyimino)-acetamido]-3-acetoxymethyl-ceph-3-eme-4-carboxylate] | 2 | 10 | 0.1 | 0.1 | 0.1 | 0.1 | 0.05 | 5 | 5 | 2 | 2 | 2 | 3 | 5 | 5 | 3 | 5 | 5 | 20 | 20 | MIC ([1]; ATCC6, 48 H, 37° C.): 1 µg/mL; MIC ([1]; ATCC6, 24 h): 0.5 µg/mL; MIC ([4]; ATCC11, 48 H, 37° C.): 0.05 µg/mL; MIC ([5]; ATCC9, 24 h): 0.2 µg/mL; MIC ([5]; ATCC9, 48 h): 0.5 µg/mL; MIC ([6]; 24 h): 0.5 µg/mL; MIC ([6]; 48 h): 0.5 µg/mL; MIC ([7]; EXP.52145, 24 H, 37° C.): 0.05 µg/mL; MIC ([7]; EXP.52145, 48 H, 37° C.): 0.05 µg/mL; MIC ([8]; 24 h): 0.1 µg/mL; MIC ([8]; 48 h): 0.1 µg/mL; MIC ([9]; 24 H, 37° C.): 5 µg/mL; MIC ([9]; 48 H, 37° C.): 40 µg/mL; MIC ([10]; 24 h): 0.2 µg/mL; MIC ([10]; 48 h): 0.2 µg/mL; MIC ([16]; 48 H): > 40 µg/mL; MIC ([17]; A561, 24 h): 0.1 µg/mL; MIC ([17]; A561, 48 h): 0.1 µg/mL
CC(=O)OCC1=C(C(=O)O)N2C(=O)C(NC(=O)/C(=N\OC(C)(C)C(=O)O)c3csc(N)n3)[C@H]2SC1 (stereo partly drawn) [Example 14, disodium 7-[2-(2-amino-4-thiazolyl)-2-(1-carboxy-1-methylethoxyimino)-acetamido]-3-acetoxymethyl-ceph-3-eme-4-carboxylate] | 40 | > 40 | 0.5 | 0.5 | 0.5 | 0.5 | 0.2 | 2 | 3 | 1 | 1 | 20 | 20 | 20 | 40 | 20 | > 40 | > 40 | > 40 | > 40 | MIC ([1]; ATCC6, 24 H, 37° C.): 10 µg/mL; MIC ([1]; ATCC6, 48 H, 37° C.): > 40 µg/mL; MIC ([4]; ATCC11, 48 H, 37° C.): 0.2 µg/mL; MIC ([5]; ATCC9, 24 h): 0.5 µg/mL; MIC ([5]; ATCC9, 48 h): 0.5 µg/mL; MIC ([6]; 24 H, 37° C.): 1 µg/mL; MIC ([6]; 48 H, 37° C.): 1 µg/mL; MIC ([7]; EXP.52145, 24 H, 37° C.): 1 µg/mL; MIC ([7]; EXP.52145, 48 H, 37° C.): 1 µg/mL; MIC ([8]; 24 H, 37° C.): 0.05 µg/mL; MIC ([8]; 48 H, 37° C.): 0.05 µg/mL; MIC ([9]; 24 H, 37° C.): 0.1 µg/mL; MIC ([9]; 48 H, 37° C.): 3 µg/mL; MIC ([10]; 24 H, 37° C.): 1 µg/mL; MIC ([10]; 48 H, 37° C.): 1 µg/mL; MIC ([16]; 48 H): > 40 µg/mL; MIC ([17]; A561, 24 H, 37° C.): 1 µg/mL; MIC ([17]; A561, 48 H, 37° C.): 1 µg/mL
